In ChEMBL document CHEMBL1275440, “In vitro activity of telavancin against resistant gram-positive bacteria” (2008):
Values after ≈ are worked out from the molar mass of the structure shown. Active and inactive are the calls of the source. The rule behind the calls is not given here.

Assays:
[1] = system: Streptococcus pyogenes; test: Antibacterial activity against Streptococcus pyogenes MED 2040 by broth microdilution method; format: functional
[2] = system: Streptococcus agalactiae; test: Antibacterial activity against Streptococcus agalactiae MED 2038 by broth microdilution method; format: functional
[3] = system: Streptococcus pneumoniae; test: Antibacterial activity against multidrug resistant Streptococcus pneumoniae MED 1090 by broth microdilution method; format: functional
[4] = system: Enterococcus faecium; test: Antibacterial activity against vancomycin resistant Enterococcus faecium VanB clinical isolate assessed as susceptibility level by broth microdilution method; format: functional
[5] = system: Enterococcus faecium; test: Antibacterial activity against vancomycin resistant Enterococcus faecium VanA clinical isolate assessed as susceptibility level by broth microdilution method; format: functional
[6] = system: Enterococcus faecalis; test: Antibacterial activity against vancomycin resistant Enterococcus faecalis VanB clinical isolate assessed as susceptibility level by broth microdilution method; format: functional
[7] = system: Enterococcus faecalis; test: Antibacterial activity against vancomycin resistant Enterococcus faecalis VanA clinical isolate assessed as susceptibility level by broth microdilution method; format: functional
[8] = system: Streptococcus viridans; test: Antibacterial activity against Streptococcus viridans clinical isolate assessed as susceptibility level by broth microdilution method; format: functional
[9] = system: Streptococcus constellatus; test: Antibacterial activity against Streptococcus constellatus clinical isolate assessed as susceptibility level by broth microdilution method; format: functional
[10] = system: Streptococcus oralis; test: Antibacterial activity against Streptococcus oralis clinical isolate assessed as susceptibility level by broth microdilution method; format: functional
[11] = system: Streptococcus intermedius; test: Antibacterial activity against Streptococcus intermedius clinical isolate assessed as susceptibility level by broth microdilution method; format: functional
[12] = system: Streptococcus mitis; test: Antibacterial activity against Streptococcus mitis clinical isolate assessed as susceptibility level by broth microdilution method; format: functional
[13] = system: Streptococcus agalactiae; test: Antibacterial activity against Streptococcus agalactiae group B clinical isolate assessed as susceptibility level by broth microdilution method; format: functional
[14] = system: Streptococcus pyogenes; test: Antibacterial activity against Streptococcus pyogenes group A clinical isolate assessed as susceptibility level by broth microdilution method; format: functional
[15] = system: Streptococcus pneumoniae; test: Antibacterial activity against multidrug-resistant Streptococcus pneumoniae clinical isolate assessed as susceptibility level by broth microdilution method; format: functional
[16] = system: Streptococcus pneumoniae; test: Antibacterial activity against penicillin resistant Streptococcus pneumoniae clinical isolate assessed as susceptibility level by broth microdilution method; format: functional
[17] = system: Streptococcus pneumoniae; test: Antibacterial activity against penicillin intermediate Streptococcus pneumoniae clinical isolate assessed as susceptibility level by broth microdilution method; format: functional
[18] = system: Staphylococcus saprophyticus; test: Antibacterial activity against methicillin resistant coagulase-negative Staphylococcus saprophyticus clinical isolate assessed as susceptibility level by broth microdilution method; format: functional
[19] = (§1) Antibacterial activity against methicillin resistant coagulase-negative Staphylococcus hominis subsp. novobiosepticus clinical isolate assessed as susceptibility level by broth microdilution method; format: functional
[20] = system: Staphylococcus haemolyticus; test: Antibacterial activity against methicillin resistant coagulase-negative Staphylococcus haemolyticus clinical isolate assessed as susceptibility level by broth microdilution method; format: functional
[21] = system: Staphylococcus capitis; test: Antibacterial activity against methicillin resistant coagulase-negative Staphylococcus capitis clinical isolate assessed as susceptibility level by broth microdilution method; format: functional
[22] = system: Staphylococcus auricularis; test: Antibacterial activity against methicillin resistant coagulase-negative Staphylococcus auricularis clinical isolate assessed as susceptibility level by broth microdilution method; format: functional
[23] = system: Staphylococcus epidermidis; test: Antibacterial activity against methicillin resistant Staphylococcus epidermidis clinical isolate assessed as susceptibility level by broth microdilution method; format: functional
[24] = system: Staphylococcus aureus; test: Antibacterial activity against methicillin resistant Staphylococcus aureus clinical isolate assessed as susceptibility level by broth microdilution method; format: functional
[25] = system: Enterococcus faecium; test: Antibacterial activity against vancomycin resistant Enterococcus faecium VanB clinical isolate by broth microdilution method; format: functional
[26] = system: Enterococcus faecium; test: Antibacterial activity against vancomycin resistant Enterococcus faecium VanA clinical isolate by broth microdilution method; format: functional
[27] = system: Enterococcus faecalis; test: Antibacterial activity against vancomycin resistant Enterococcus faecalis VanB clinical isolate by broth microdilution method; format: functional
[28] = system: Enterococcus faecalis; test: Antibacterial activity against vancomycin resistant Enterococcus faecalis VanA clinical isolate by broth microdilution method; format: functional
[29] = system: Streptococcus viridans; test: Antibacterial activity against Streptococcus viridans clinical isolate by broth microdilution method; format: functional
[30] = system: Streptococcus constellatus; test: Antibacterial activity against Streptococcus constellatus clinical isolate by broth microdilution method; format: functional
[31] = system: Streptococcus oralis; test: Antibacterial activity against Streptococcus oralis clinical isolate by broth microdilution method; format: functional
[32] = system: Streptococcus intermedius; test: Antibacterial activity against Streptococcus intermedius clinical isolate by broth microdilution method; format: functional
[33] = system: Streptococcus mitis; test: Antibacterial activity against Streptococcus mitis clinical isolate by broth microdilution method; format: functional
[34] = system: Streptococcus agalactiae; test: Antibacterial activity against Streptococcus agalactiae group B clinical isolate by broth microdilution method; format: functional
[35] = system: Streptococcus pyogenes; test: Antibacterial activity against Streptococcus pyogenes group A clinical isolate by broth microdilution method; format: functional
[36] = system: Streptococcus pneumoniae; test: Antibacterial activity against multidrug-resistant Streptococcus pneumoniae clinical isolate by broth microdilution method; format: functional
[37] = system: Streptococcus pneumoniae; test: Antibacterial activity against penicillin resistant Streptococcus pneumoniae clinical isolate by broth microdilution method; format: functional
[38] = system: Streptococcus pneumoniae; test: Antibacterial activity against penicillin intermediate Streptococcus pneumoniae clinical isolate by broth microdilution method; format: functional
[39] = system: Staphylococcus saprophyticus; test: Antibacterial activity against methicillin resistant coagulase-negative Staphylococcus saprophyticus clinical isolate by broth microdilution method; format: functional
[40] = (§2) Antibacterial activity against methicillin resistant coagulase-negative Staphylococcus hominis subsp. novobiosepticus clinical isolate by broth microdilution method; format: functional
[41] = system: Staphylococcus haemolyticus; test: Antibacterial activity against methicillin resistant coagulase-negative Staphylococcus haemolyticus clinical isolate by broth microdilution method; format: functional
[42] = system: Staphylococcus capitis; test: Antibacterial activity against methicillin resistant coagulase-negative Staphylococcus capitis clinical isolate by broth microdilution method; format: functional
[43] = system: Staphylococcus auricularis; test: Antibacterial activity against methicillin resistant coagulase-negative Staphylococcus auricularis clinical isolate by broth microdilution method; format: functional
[44] = system: Staphylococcus epidermidis; test: Antibacterial activity against methicillin resistant Staphylococcus epidermidis clinical isolate by broth microdilution method; format: functional
[45] = system: Staphylococcus aureus; test: Antibacterial activity against methicillin resistant Staphylococcus aureus clinical isolate by broth microdilution method; format: functional
[46] = system: Enterococcus faecalis
[47] = system: Staphylococcus hominis subsp. novobiosepticus; test: as §1; format: functional
[48] = system: Staphylococcus hominis subsp. novobiosepticus; test: as §2; format: functional

CN[C@H](CC(C)C)C(=O)N[C@H]1C(=O)N[C@@H](CC(N)=O)C(=O)N[C@H]2C(=O)N[C@H]3C(=O)N[C@H](C(=O)N[C@H](C(=O)O)c4cc(O)cc(O)c4-c4cc3ccc4O)[C@H](O)c3ccc(c(Cl)c3)Oc3cc2cc(c3O[C@@H]2O[C@H](CO)[C@@H](O)[C@H](O)[C@H]2O[C@H]2C[C@](C)(N)[C@H](O)[C@H](C)O2)Oc2ccc(cc2Cl)[C@H]1O [VANCOMYCIN]
MIC [1]: 0.25 µg/mL (≈ 0.173 µM) | MIC [2]: 0.25 µg/mL (≈ 0.173 µM) | MIC [3]: 0.25 µg/mL (≈ 0.173 µM) | Activity [4]: 0% | Activity [5]: 0% | Activity [6]: 0% | Percent of isolates susceptible [7]: 0% | Activity [8]: 100% | Activity [9]: 100% | Activity [10]: 100% | Activity [11]: 100% | Activity [12]: 100% | Activity [13]: 100% | Activity [14]: 98% | Activity [15]: 100% | Activity [16]: 100% | Activity [17]: 100% | Activity [18]: 100% | Activity [19]: 100% | Activity [20]: 100% | Activity [21]: 100% | Activity [22]: 100% | Activity [23]: 100% | Activity [24]: 100% | MIC50 [25]: 512 µg/mL (≈ 353 µM) | MIC90 [25]: > 512 µg/mL | MIC50 [26]: 512 µg/mL (≈ 353 µM) | MIC90 [26]: > 512 µg/mL | MIC [27]: 32 µg/mL (≈ 22.1 µM) | MIC50 [28]: 512 µg/mL (≈ 353 µM) | MIC90 [28]: > 512 µg/mL | MIC [29]: 0.25 µg/mL (≈ 0.173 µM) | MIC50 [29]: inactive | MIC90 [29]: inactive | MIC [30]: 0.25 µg/mL (≈ 0.173 µM) | MIC50 [30]: inactive | MIC90 [30]: inactive | MIC [31]: 0.25 µg/mL (≈ 0.173 µM) | MIC50 [31]: inactive | MIC90 [31]: inactive | MIC [32]: 0.25 µg/mL (≈ 0.173 µM) | MIC50 [32]: inactive | MIC90 [32]: inactive | MIC [33]: 0.25 µg/mL (≈ 0.173 µM) | MIC50 [33]: inactive | MIC90 [33]: inactive | MIC [34]: 0.25 µg/mL (≈ 0.173 µM) | MIC50 [34]: 0.25 µg/mL (≈ 0.173 µM) | MIC90 [34]: 0.5 µg/mL (≈ 0.345 µM) | MIC50 [35]: 0.25 µg/mL (≈ 0.173 µM) | MIC90 [35]: 0.5 µg/mL (≈ 0.345 µM) | MIC50 [36]: 0.25 µg/mL (≈ 0.173 µM) | MIC90 [36]: 0.25 µg/mL (≈ 0.173 µM) | MIC50 [37]: 0.25 µg/mL (≈ 0.173 µM) | MIC90 [37]: 0.25 µg/mL (≈ 0.173 µM) | MIC50 [38]: 0.5 µg/mL (≈ 0.345 µM) | MIC90 [38]: 0.5 µg/mL (≈ 0.345 µM) | MIC50 [39]: 2 µg/mL (≈ 1.38 µM) | MIC90 [39]: 2 µg/mL (≈ 1.38 µM) | MIC50 [40]: 2 µg/mL (≈ 1.38 µM) | MIC90 [40]: 2 µg/mL (≈ 1.38 µM) | MIC50 [41]: 2 µg/mL (≈ 1.38 µM) | MIC90 [41]: 2 µg/mL (≈ 1.38 µM) | MIC50 [42]: 2 µg/mL (≈ 1.38 µM) | MIC90 [42]: 2 µg/mL (≈ 1.38 µM) | MIC50 [43]: 2 µg/mL (≈ 1.38 µM) | MIC90 [43]: 2 µg/mL (≈ 1.38 µM) | MIC [44]: 0.5 µg/mL (≈ 0.345 µM) | Activity [45]: 100% | MIC50 ([45]; Staphylococcus aureus): 0.5 µg/mL (≈ 0.345 µM) | MIC90 ([45]; Staphylococcus aureus): 1 µg/mL (≈ 0.69 µM) | MIC50 [46]: inactive | MIC90 [46]: inactive

GENTAMICIN
Activity [18]: 29% | Activity [47]: 29% | Activity [20]: 29% | Activity [21]: 29% | Activity [22]: 29% | Activity [23]: 35% | Activity [24]: 97% | MIC50 [39]: 16 µg/mL | MIC90 [39]: > 16 µg/mL | MIC50 [48]: 16 µg/mL | MIC90 [48]: > 16 µg/mL | MIC50 [41]: 16 µg/mL | MIC90 [41]: > 16 µg/mL | MIC50 [42]: 16 µg/mL | MIC90 [42]: > 16 µg/mL | MIC50 [43]: 16 µg/mL | MIC90 [43]: > 16 µg/mL | MIC50 [44]: 16 µg/mL | MIC90 [44]: > 16 µg/mL | Activity [45]: 97% | MIC50 [45]: 0.5 µg/mL | MIC90 [45]: 2 µg/mL
